Consider 15 molecules from patent US20110314564A1, “ENZYMES AND METHODS FOR HYDROLYSING PHENYLUREAS, CARBAMATES AND ORGANOPHOSPHATES” (priority 2008, published 2011).

The target in one series is PuhA (Arthrobacter globiformis, UniProt B8R4L9). Nature of the series: Hydrolysis of phenylurea, carbamate and organophosphate substrates by purified PuhA (LCMS / FBBS / A400 assays).
Another series addresses PuhB (Mycolicibacterium brisbanense, UniProt B8R4K0). Nature of the series: Hydrolysis of phenylurea, carbamate and organophosphate substrates by purified PuhB (LCMS / FBBS / A400 assays).
For series [1], the system named is CN(C)C(=O)Nc1ccc(Cl)c(Cl)c1. Nature of the series: purified protein, by the assay type. The note with it: pH 6.9, 25.0 °C.
Series [2] in a line: Activity of native PuhA and PuhB at each purification step (DCA formation). In kind it is biochemical. The text has this: (§1) Protein concentration was estimated using the Bio-rad protein assay (Bradford), with bovine serum albumin used as standard. Protein purity was monitored using sodium dodecyl sulphate-polyacrylamide gel electrophoresis (SDS-PAGE) stained with Coomassie brilliant blue. Where PuhA and B concentrations were estimated in semi purified extracts, SDS-PAGE gels were scanned using Labscan v5 (Amersham Biosciences) and band densitometry performed with Total lab TL100 (Nonlinear dynamics). Talon cobalt resin (BD Biosciences) was used for the purification of hexa-histidine tagged protein. Untagged protein was purified by ammonium sulfate (AS) precipitiation followed by hydrophobic interaction chromatography (HIC; Phenylsepharose), anion exchange chromatography (AEX; Macro Q) and size exclusion chromatography (SEC; Superose 6 or Sephadex 200). All columns were purchased from GE Healthcare. The hydrophobic interaction column was equilibrated with Tris (pH 8)/1 M ammonium sulfate and bound protein was then eluted with Tris (pH 8) over 400 mL. Protein was bound to the anion exchange column with Tris (pH 8) and eluted with a gradient of Tris (pH 8)/1 M NaCl over 500 mL. The buffer was exchanged to 25 mM HEPES/50 mM KCl (pH 8) during SEC and the protein was stable in this buffer at 4° C. for several weeks. The oligomeric structure was estimated with a Superose 6 size exclusion column calibrated with the following protein standards (kDa): thyroglobulin (669), ferritin (440), catalase (232) and aldolase (158). Standard tryptic peptide mass fingerprinting was used to confirm the identity of proteins excised from polyacrylamide gels by liquid chromatography electro spray ionisation mass spectroscopy/mass spectroscopy (LC ESI MS/MS) ion trap following the method of Campbell et al. (2008).

Series [3] in a line: Activity of PuhA and PuhB expressed in M. smegmatis at each purification step (PNP release). In kind it is biochemical. The method, then:
(§2) Pwo polymerase (Roche) and restriction enzymes NdeI, BamHI and HindIII (Fermentas) were used following manufacturers' protocols. Electro-competent E. coli strains JM109 (Promega) were utilised for transformation of ligation reactions (using Promega ligase). Protein expressions in E. coli were inoculated (1% v/v) with an overnight seed culture in LB and then incubated with shaking at 20° C. for 11 hours followed by induction with 0.1 mM isopropyl-β-D-thiogalactopyranoside (IPTG) for 3 hours. M. smegmatis expressions were amended with 0.05% tween 80 and grown in LB at 28° C. for 2-4 days with no induction. Clarified cell-free extracts were obtained by resuspending the bacteria in 25 mM Tris (pH 8) followed by 3 passes through a French pressure cell (Thermo) and centrifugation at 27,000 g (Beckman Avanti).
as §1

Series [4] can be described thus: Diuron hydrolase activity in the soluble fraction of recombinant expression hosts. In kind it is biochemical.
Text: PuhA and PuhB were amplified as N-hexa-histidine tagged fusions from pET14b (Novagen) in E. coli rosetta II cells (Novagen) and pMV261 (Stover et al., 1991) in M. smegmatis mc2. Protein without hexa-histidine tags was later expressed in M. smegmatis mc2. The PCR primers used in these cloning procedures are noted in Table 2 (SEQ ID NOs 5 to 13).
as §2

Series [5] can be described thus: Thermal stability: residual activity after 10 minutes pre-incubation, Boltzmann fit. In kind it is biochemical. As to the method:
(§3) The influence of solvents (acetonitrile and methanol) was examined by using 7 concentrations from 0.4-18.2% over 1 hour duplicate assays with 77 μM diuron and monitored by LCMS. The effect of temperature on the activity of the enzymes was determined in two ways: firstly, the temperature at which reaction was catalysed was controlled at 12 temperatures ranging from 2-60° C. with 154 μM diuron; secondly, enzyme was preincubated at 6 temperatures from 30-55° C. for 10 minutes prior to 1 hour assays at 25° C. The residual activity data was obtained by LCMS and fitted to the Boltzmann function (eq 1)
(§4) A bell shaped model (eq 2)

Series [6] is described as follows: Stability in the presence of the solvents acetonitrile and methanol. The note with it: 1-18% v/v solvent. In kind it is biochemical. The method, then:
as §3

Series [7] in a line: pH dependence of kcat, kcat/Km and Km with diuron in constant ionic strength buffer. In kind it is biochemical.
Text: as §4
(§5) was used to fit an activity y, either log(kcat) and log(kcat/Km) vs. pH. (y)^max is the plateau value and pKa^1 and pKa^2 are the apparent pKa values for the acidic and basic groups, respectively. Equations were fitted to the data using Kaleidagraph v3.6 (Synergy Software). The substrate pKa values were obtained via an online database www.syrres.com/esc/physdemo.htm (Syracuse Research Corporation).

Series [8] in a line: Bronsted plots (pKa of leaving group vs log kcat) for N-dimethyl phenylureas. In kind it is biochemical. The following applies: slope between pKa 4-5.
Text: as §5

PuhB, sequence (B8R4K0 entry or part of it): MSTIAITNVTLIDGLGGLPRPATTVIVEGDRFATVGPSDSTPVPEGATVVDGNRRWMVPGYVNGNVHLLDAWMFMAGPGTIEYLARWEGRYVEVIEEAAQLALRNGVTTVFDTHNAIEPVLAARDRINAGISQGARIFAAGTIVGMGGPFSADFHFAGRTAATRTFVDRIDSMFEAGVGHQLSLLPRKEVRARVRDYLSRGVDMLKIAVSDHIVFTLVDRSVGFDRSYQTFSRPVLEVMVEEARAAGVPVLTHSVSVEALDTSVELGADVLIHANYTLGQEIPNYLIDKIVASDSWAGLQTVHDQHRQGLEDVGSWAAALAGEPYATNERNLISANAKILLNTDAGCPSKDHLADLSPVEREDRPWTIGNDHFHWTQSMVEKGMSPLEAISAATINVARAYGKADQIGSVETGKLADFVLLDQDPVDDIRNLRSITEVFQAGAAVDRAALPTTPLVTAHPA

With `CCCCN(C)C(=O)Nc1ccc(Cl)c(Cl)c1` [neburon], the “hydrolysis / turnover of the substrate (in words)” value (from here on “hydrolysis / turnover”) on PuhA (PuhA) and on PuhB (PuhB) was “no detectable hydrolysis” throughout.

Consider `CN(C)C(=O)Nc1ccc(-n2nc(C(C)(C)C)oc2=O)c(Cl)c1` [dimefuron], for which the “hydrolysis / turnover” value on PuhA (PuhA) and on PuhB (PuhB) was “no detectable hydrolysis” in each case.

`O=C(Nc1ccccc1)Nc1cnns1` [thidiazuron]: the “hydrolysis / turnover” value at PuhA (PuhA) and at PuhB (PuhB) was “no detectable hydrolysis” throughout.

As to `Cc1nc(N(C)C)nc(OC(=O)N(C)C)c1C` [pirimicarb], at PuhA (PuhA), the “catalytic efficiency, fold lower than diuron” value was 10^4 fold and the “hydrolysis / turnover” value is recorded as “slowly turned over”. Further, at PuhB (PuhB), the “catalytic efficiency, fold lower than diuron” value is 10^3 fold and the “hydrolysis / turnover” value is given as “slowly turned over”.

Take `CCN(CC)C(=O)SCc1ccc(Cl)cc1` [thiobencarb]: the “hydrolysis / turnover” value at PuhA (PuhA) and on PuhB (PuhB) was “neither enzyme catalysed the hydrolysis” each time.

Take `CC1CCCCC1NC(=O)Nc1ccccc1` (stereo not drawn) [siduron]: the “hydrolysis / turnover” value on PuhA (PuhA) and at PuhB (PuhB) was “no detectable hydrolysis” throughout.

As to `CON(C)C(=O)Nc1ccc(Cl)c(Cl)c1` [linuron], the “turnover rate (kcat), fold higher than that of diuron” value on PuhA (enzyme not given) and at PuhB (enzyme not given) was ~9 fold in each case.

Regarding `CCOP(=O)(OCC)Oc1ccc([N+](=O)[O-])cc1` [paraoxon ethyl], the “hydrolysis / turnover” value was “only slightly lower than isoproturon” at PuhA (PuhA); “turned over by both proteins” at PuhA (PuhA, listed as ethyl paraoxon); “only slightly lower than isoproturon” at PuhB (PuhB); “turned over by both proteins” on PuhB (PuhB, listed as ethyl paraoxon).

As to `CNC(=O)Oc1cccc2ccccc12` [carbaryl], the “hydrolysis / turnover” value on PuhA (PuhA) and at PuhB (PuhB) was “neither enzyme catalysed the hydrolysis” each time.

Take PuhB (Mycolicibacterium brisbanense): the Km in series [1] (other: PuhB) worked out at 11.0 µM.

Turning to `CN(C)C(=O)Oc1ccc([N+](=O)[O-])cc1` [DMNPC, N-dimethyl, O-4-nitrophenyl carbamate], the “hydrolysis / turnover” value at PuhA (PuhA) and at PuhB (PuhB) was “turned over at a higher efficiency than poor phenylurea substrates” each time.

In the case of `CNC(=O)N(C)c1nnc(C(C)(C)C)s1` [tebuthiuron], the “hydrolysis / turnover” value at PuhA (PuhA) and on PuhB (PuhB) was “no detectable hydrolysis” each time.

For `CON(C)C(=O)Oc1ccc(Cl)c(Cl)c1` [carbamate analogue of linuron, 3,4-dichlorophenyl N-methoxy-N-methylcarbamate], the “hydrolysis / turnover” value at PuhA (PuhA) and at PuhB (PuhB) was “as efficiently as the phenylurea” each time.

Take PuhA (Arthrobacter globiformis): the Km in [1] (other: PuhA) came to 55.0 µM.

B1: PuhA: phenylurea hydrolase from A. globiformis D47, amino acid sequence SEQ ID NO:3 (protein)
chain: MTTTAITDITLIDGRGGAPERGVTVLVDEDRFSAIGPTATTPIPDGARVVGGAGRWMVPGYVNGNVHLLDAWMFMVGPGTIEYLARWEGRYVEVIEEAAQLVLRNGVTTVFDTYNAIEPVLAARDRINAGTSAGARIFAAGTIVGLGGPFSADFHFIGQQAASRTFVNRIDAMFEAGVGHQLSLLPRNEVRSRVRDYLARGVDMLKIAVSDHIVFTVGFDRSCQTFSRPVLEVMFEEARAAGVPVLTHSVSVEALDTSVDLGADVLIHANYTLGQHIPDYLIDKIAASDSYAGLQTVHHEHREGLERVGSWAATLAGEPYASNERALIRAKAKILMNTDAGCPSKDHLADLSPAEREDRPWTIGGDHFHWTQSIVEKGMTPLEAISAATLNVARAYGKDADIGSVETGKLADFVLLDADPTADIRHLRSISAVYQAGVAVDRGALPTTPLVTAHPA
modifications: Arthrobacter globiformis D47
For B1, the “Activity (nmol DCA/μg/hour)” value in series [2] (AS (ammonium sulfate)) is on record as 0.18 nmol DCA/μg/hour; in series [2] (CFE (cell free extract)) it was 0.05 nmol DCA/μg/hour; in series [2] (HIC) it was 0.73 nmol DCA/μg/hour; in series [2] (SEC), 2.79 nmol DCA/μg/hour. Further, the entries for the “Estimated specific activity (mol/mol/min)” value in series [2] (HIC) and in series [2] (SEC) were 10.20 mol/mol/min and 7.02 mol/mol/min, respectively. Further, the “Activity (mM PNP/mg/min)” value in series [3] (AEX) is listed as 6.2 mM PNP/mg/min; in [3] (CFE), 0.3 mM PNP/mg/min; in series [3] (HIC), 4.3 mM PNP/mg/min; in series [3] (SEC) it was 7.8 mM PNP/mg/min. For the same molecule, in series [4] (expressed in E. coli Rosetta 2 DE3 from pET14b), the “specific activity in the soluble fraction, fold lower compared to the native expression” value is reported as ~10 fold. The “activity in the soluble fraction (in words)” value in series [4] (expressed in M. smegmatis from pMV261) was “comparable to that measured in the native expressions”. In series [5] (10 minutes incubation at 40° C.), the “residual activity after incubation (in words)” value was “retaining significant activity”. In addition, the “Tm indicating 50% activity retained” value in series [5] (10 minutes pre-incubation, then 1 hour assay at 25° C.) was 46.6 °C. Moreover, the “activity in the presence of methanol and acetonitrile (in words)” value in series [6] was “significantly inhibited”. The pKe1 in series [7] (acidic shoulder) was 4.2. Moreover, the pKes1 in series [7] (acidic shoulder) was determined as 5.1. The pKe2 in series [7] (basic shoulder) is 8.9. Besides, the pKes2 in series [7] (basic shoulder) came to 10.2. For the same molecule, the “pKe of the decrease in catalytic efficiency” value in series [7] (basic side) is reported as ~10. Further, in [8], the βlg was −1.6.
